Results as given in patent publication US12091561B2, “Recording method and recording apparatus” (Seiko Epson Corporation, priority 2021, dated 2024).

Experimental: The solubility is measured as described below. A predetermined amount of a compound is mixed with 100 g of water in an environment at 25° C. and is then stirred for 30 minutes. […] As described above, when a predetermined amount of the compound is mixed with 100 g of water, the maximum predetermined amount which is judged to be dissolved is used as the solubility.

Compound	SOLUBILITY [g/100 g OF WATER]
OC1CCCCC1O (stereo not drawn) [1,2-CYCLOHEXANEDIOL, 1,2-cyclohexanediol]	>100 g/100 g OF WATER
CC(C)(O)CCC(C)(C)O [2,5-dimethyl-2,5-hexanediol]	14 g/100 g OF WATER
CC(C)(CO)CO [NEOPENTYL GLYCOL, neopentyl glycol]	80 g/100 g OF WATER
CC(C)(O)C(C)(C)O [PINACOL, pinacol]	∞
CC(O)CO (stereo not drawn) [PROPYLENE GLYCOL, propylene glycol]	∞
O=C1CCCCCN1 [ε-CAPROLACTAM, ε-caprolactam]	>100 g/100 g OF WATER
